Usually EC50 stands for the concentration giving half of the maximal effect. High values mean a need for much substance, low ones an effect from little substance.

The record followed here is ChEMBL document CHEMBL1221397, “Bioassay-guided isolation of the antidiabetic principle from Sorbus decora (Rosaceae) used traditionally by the Eeyou Istchee Cree First Nations” (J Nat Prod, 2010).

The test system of this test is C2C12. As to the kind of experiment: Induction of [3H]2-deoxy-D-glucose uptake in mouse C2C12 cells after 18 hrs by scintillation counting. Format: functional, cell-based.

Regarding `C=C(C)[C@@H]1CC[C@]2(CO)CC[C@]3(C)[C@H](CC[C@@H]4[C@@]5(C)CC[C@H](OC(=O)/C=C/c6ccc(O)c(O)c6)[C@@](C)(CO)[C@@H]5CC[C@]43C)[C@@H]12`, it took 1.47 µM to reach a half-maximal effect (EC50).
